Test results: patent US4342752A, “Carbalkoxymethyl derivatives of rutin poly(H-)sulfate and method of use” (American Cyanamid Company, priority 1981, dated 1982)
Values joined by “and” are separate entries in the source; they are usually repeats but may differ in a detail not shown here. Equal values may be shown once. Where a name gives a salt, the structure may show the parent alone. Read-outs that look alike come from different tables or passages of the source.

What was measured:
activated human C1 = molecular target: T1, activated human C1 (Homo sapiens, UniProt P09871); test: Test Code 026 (C1 inhibitor); type: biochemical; conditions: twofold serial dilutions; higher well number indicates higher activity
T1 sequence (P09871 438-688 limits assumed): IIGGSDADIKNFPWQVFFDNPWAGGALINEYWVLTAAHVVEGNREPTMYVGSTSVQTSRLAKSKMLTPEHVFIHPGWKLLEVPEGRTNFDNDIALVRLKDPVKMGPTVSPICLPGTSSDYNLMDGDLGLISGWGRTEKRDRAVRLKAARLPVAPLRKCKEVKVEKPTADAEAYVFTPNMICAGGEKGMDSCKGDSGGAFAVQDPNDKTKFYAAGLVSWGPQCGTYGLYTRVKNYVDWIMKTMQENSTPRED
T1 sequence (P09871 16-437 limits assumed): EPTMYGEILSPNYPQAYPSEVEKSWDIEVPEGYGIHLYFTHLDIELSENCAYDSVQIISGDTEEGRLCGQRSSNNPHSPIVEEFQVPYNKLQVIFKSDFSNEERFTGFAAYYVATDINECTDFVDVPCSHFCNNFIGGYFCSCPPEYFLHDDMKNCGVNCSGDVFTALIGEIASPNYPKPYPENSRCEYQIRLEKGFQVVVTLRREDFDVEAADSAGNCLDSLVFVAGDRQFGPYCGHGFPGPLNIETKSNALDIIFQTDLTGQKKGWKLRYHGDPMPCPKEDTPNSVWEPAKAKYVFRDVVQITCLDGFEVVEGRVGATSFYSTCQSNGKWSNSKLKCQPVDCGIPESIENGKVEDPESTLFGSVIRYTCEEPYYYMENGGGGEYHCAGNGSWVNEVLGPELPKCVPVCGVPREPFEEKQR
Experimental: (§1) An active inhibitor protects C2 from C1 and C4; (ii) Cap 50 Test--Here, appropriate amounts of the test compound are added to a pool of guinea pig serum in vitro, after which the undiluted serum capillary tube assay referred to above is run. The concentration of compound inhibiting 50% is reported; and (iii) Guinea Pig Intraperitoneal Test (GPIP)--Guinea pigs weighing about 300 g. are dosed intraperitoneally (i.p.) with 200 mg./kg. of the test compound dissolved in saline and adjusted to pH 7-8. Approximately 0.4 ml. blood samples, taken by orbital sinus puncture 30 minutes and one hour after injections, are collected directly into centrifuge tubes; 5 ml. blood samples, taken by decapitation 2 hours after injection are collected directly into beakers. The samples are allowed to clot, centrifuged, and the resultant sera are assayed for complement activity using the capillary complement assay. Percent inhibition are calculated by comparison with simultaneous controls.

[1] = system: complement activity of sera; test: Guinea Pig Intraperitoneal Test (GPIP); conditions: Cavia porcellus, ip, 200 mg./kg. i.p., read-out: In Vivo Activity (Guinea Pig) Intraperitoneal % Inhibition
Experimental: as §1, with “[…],” for “taken by orbital sinus puncture 30 minutes and one hour after injections,”, “taken by decapitation 2 hours after injection are collected directly into” left out

CCOC(=O)COc1cc(OS(=O)(=O)O)c2c(=O)c(O[C@@H]3O[C@H](CO[C@@H]4O[C@@H](C)[C@H](OS(=O)(=O)O)[C@@H](OS(=O)(=O)O)[C@H]4OS(=O)(=O)O)[C@@H](OS(=O)(=O)O)[C@H](OS(=O)(=O)O)[C@H]3OS(=O)(=O)O)c(-c3ccc(OS(=O)(=O)O)c(OS(=O)(=O)O)c3)oc2c1 [7-O-Carbethoxymethyl-rutin nona(H-sulfate)sodium salt]
In vitro Activity 026 (activity in wells, serial dilution assay) (activated human C1): 12 wells and 10 wells
inhibition at 200 mg/kg ([1]; Time 2 hours): 39%
inhibition at 200 mg/kg ([1]; Time 6 hours): 43%
inhibition at 200 mg/kg ([1]; Time 24 hours): 55%
